Source: article PMC6270423, “Phytochemical, Antimicrobial and Antiprotozoal Evaluation of Garcinia Mangostana Pericarp and α-Mangostin, Its Major Xanthone Derivative” (Molecules, 2013)
Like-named read-outs stand apart in the source and are kept apart here.

How the values were obtained:
[1] = test system: Chloroquine-resistant P. falciparum K 1-strain; assay: Antiplasmodial activity, Malstat (pLDH) assay; format: cell-based; details: Plasmodium falciparum; K1 strain, 72 h
Protocol: (§1) The integrated panel of microbial screens and standard screening methodologies were adopted as previously described. All assays were performed in triplicate at the Laboratory of Microbiology, Parasitology and Hygiene at the University of Antwerp (Antwerp, Belgium). Extracts were tested at five concentrations (64, 16, 4, 1 and 0.25 μg/mL) to establish a full dose-titration and determination of the IC50 (inhibitory concentration 50%). […] The selectivity of activity was assessed by simultaneous cytotoxicity evaluation on the MRC-5 fibroblast cell line.
Chloroquine-resistant P. falciparum K 1-strain was cultured in human erythrocytes O^+ at 37 °C under a low oxygen atmosphere (3% O2, 4% CO2, and 93% N2) in RPMI-1640, supplemented with 10% human serum. Infected human red blood cells (200 μL, 1% parasitaemia, 2% haematocrit) were added to each well and incubated for 72 h. After incubation, test plates were frozen at −20 °C. Parasite multiplication was measured using the Malstat assay, a colorimetric method based on the reduction of 3-acetyl pyridine adenine dinucleotide (APAD) by parasite-specific lactate-dehydrogenase (pLDH).

[2] = test system: L. infantum MHOM/MA (BE)/67 amastigotes; assay: Antileishmanial activity, intracellular amastigotes in primary peritoneal mouse macrophages; format: cell-based, Leishmania infantum; details: 5 days
Protocol: The integrated panel of microbial screens and standard screening methodologies were adopted as previously described. All assays were performed in triplicate at the Laboratory of Microbiology, Parasitology and Hygiene at the University of Antwerp (Antwerp, Belgium). […] The selectivity of activity was assessed by simultaneous cytotoxicity evaluation on the MRC-5 fibroblast cell line. […] L. infantum MHOM/MA (BE)/67 amastigotes were collected from the spleen of an infected donor hamster and used to infect primary peritoneal mouse macrophages. To determine in vitro antileishmanial activity, 3 × 10^4 macrophages were seeded in each well of a 96-well plate. After 2 days outgrowth, 5 × 10^5 amastigotes/well, were added and incubated for 2 h at 37 °C. Pre-diluted plant extracts were subsequently added and the plates were further incubated for 5 days at 37 °C and 5% CO2. Parasite burdens (mean number of amastigotes/macrophage) were microscopically assessed on 500 cells after Giemsa staining of the […] expressed as a percentage of the blank controls without plant extract.

T. cruzi Tulahuen CL2 = assay: Antitrypanosomal activity, T. cruzi on MRC-5 cells, LacZ reporter; format: cell-based, Trypanosoma cruzi; details: 7 days
Protocol: as §1
(§2) Trypanosoma brucei Squib-427 strain (suramin-sensitive) was cultured at 37 °C and 5% CO2 in Hirumi-9 medium, supplemented with 10% fetal calf serum (FCS). About 1.5 × 10^4 trypomastigotes/well were added to each well and parasite growth was assessed after 72 h at 37 °C by adding resazurin [29]. For Chagas disease, T. cruzi Tulahuen CL2 (benznidazole-sensitive, LacZ-reporter strain) was maintained on MRC-5 cells in minimal essential medium (MEM) supplemented with 20 mM L-glutamine, 16.5 mM sodium hydrogen carbonate and 5% FCS. […] After incubation at 37 °C for 7 days, parasite growth was assessed by adding the substrate chlorophenol red α-D-galactopyranoside. The color reaction was read at 540 nm after 4 h and absorbance values were expressed as a percentage of the blank controls.

[3] = test system: Trypanosoma brucei Squib-427 strain; assay: Antitrypanosomal activity, T. brucei trypomastigotes, resazurin; format: cell-based; details: 72 h
Protocol: as §1, §2

[4] = Cytotoxicity assay, resazurin; format: cell-based; details: human, MRC-5 SV2 fibroblast cells
Protocol: The integrated panel of microbial screens and standard screening methodologies were adopted as previously described. All assays were performed in triplicate at the Laboratory of Microbiology, Parasitology and Hygiene at the University of Antwerp (Antwerp, Belgium). […] The selectivity of activity was assessed by simultaneous cytotoxicity evaluation on the MRC-5 fibroblast cell line. […] MRC-5 SV2 cells were cultivated in MEM, supplemented with L-glutamine (20 mM), 16.5 mM sodium hydrogen carbonate and 5% FCS. […] Cell viability was assessed fluorimetrically after 4 h of addition of resazurin. Fluorescence was measured (excitation 550 nm, emission 590 nm) and the results were expressed as % reduction in cell viability compared to control.

B. subtilis = assay: Antimicrobial activity; format: cell-based, Bacillius subtilis; details: Bacillus subtilis
Protocol: (§3) Samples were tested for antimicrobial activity according to the Clinical Laboratory Standard Institution using American type of Culture Collection (ATCC) standard.

C. albicans = assay: Antimicrobial activity; format: cell-based; details: Candida albicans
Protocol: as §3

E. coli = assay: Antimicrobial activity; format: cell-based; details: Escherichia coli
Protocol: as §3

Mycobacterium smegmatis = assay: Antimicrobial activity; format: cell-based; details: Mycolicibacterium smegmatis
Protocol: as §3

P. aeruginosa = assay: Antimicrobial activity; format: cell-based; details: Pseudomonas aeruginosa
Protocol: as §3

S. aureus = assay: Antimicrobial activity; format: cell-based; details: Staphylococcus aureus
Protocol: as §3

Mycobacterium cheleneoi = assay: Antimicrobial activity; format: cell-based, M. cheleneoi
Protocol: as §3

Mycobacterium xenopi = assay: Antimicrobial activity; format: cell-based, M. xenopi
Protocol: as §3

[5] = test system: Mycobacterium intracellulare; assay: Antimicrobial activity; format: cell-based, M. intracellulare
Protocol: as §3

COc1cc2oc3cc(OC)c(OC)c(CC=C(C)C)c3c(=O)c2c(O)c1CC=C(C)C
melting point: 152 to 154 °C

COc1c(O)cc2oc3cc(O)c(CC=C(C)C)c(O)c3c(=O)c2c1CC=C(C)C [α-Mangostin]
IC50 [1]: 2200 nM
IC50 [2]: 8 µM
IC50 ([2]; Leishmania infantum, Macrophage, 120 h): 8 to 9 µM
IC50 (T. cruzi Tulahuen CL2): 8.9 µM
IC50 (T. cruzi Tulahuen CL2; Trypanosoma cruzi, TULAHUEN, MRC5, 168 h): 8 to 9 µM
IC50 [3]: 7.9 µM
IC50 ([3]; Trypanosoma brucei): 8 to 9 µM
IC50 at 72 h [4]: 7.5 µM
MIC (B. subtilis): 3.9 µM
MIC (B. subtilis; text): 1.6 µg/mL
MIC (C. albicans): > 200 µM
IC50 (C. albicans; no activity at all): > 200 µg/mL
MIC (E. coli): > 200 µM
IC50 (E. coli; no activity at all): > 200 µg/mL
MIC (Mycobacterium smegmatis; read-out: MIC Mycobacterium smegmatis): 3.7 µM
MIC (Mycobacterium smegmatis; read-out: MIC Mycobacterium species (M. smegmatis)): 1.5 µg/mL
MIC (P. aeruginosa): > 200 µM
IC50 (P. aeruginosa; no activity at all): > 200 µg/mL
MIC (S. aureus): 7.8 µM
MIC (S. aureus; text): 3.2 µg/mL
MIC (Mycobacterium cheleneoi; read-out: MIC Mycobacterium cheleneoi): 3.7 µM
MIC (Mycobacterium cheleneoi; read-out: MIC Mycobacterium species (M. cheleneoi)): 1.5 µg/mL
MIC (Mycobacterium xenopi; read-out: MIC Mycobacterium species (M. xenopi)): 1.5 µg/mL
MIC (Mycobacterium xenopi; read-out: MIC Mycobacterium xenopi): 3.7 µM
MIC ([5]; read-out: MIC Mycobacterium intracellulare): 3.7 µM
MIC ([5]; read-out: MIC Mycobacterium species (M. intracellulare)): 1.5 µg/mL
